Measurements taken from patent publication US6764854B2, “Methods for generating doubled haploid plants” (Northwest Plant Breeding Company, priority 1998, dated 2004).
Where “and” joins values, the source holds several entries; their conditions need not be identical. Equal entries are not always repeated.

Tests used:
[1] = tested on: microspores of wheat cultivar Chris; test: Optimization of 2,4-D concentration, embryoid yield and green plants (Example 4); assay type: cell-based
Method: (§1) Pretreatment of Spikes. After removing the lower nodal section, the collected tillers are placed in an autoclaved sterile flask, containing 50 ml of sterile (autoclaved) distilled water and preferably 0.1% (w/v) 2-HNA and 10^−6 to 10^−5 M 2,4-D. The open end of a plastic bag (thin-walled, grocery store bag) is then wrapped around the neck of the flask and sealed around the neck with masking tape to prevent microbial contamination and excessive loss of water. The flask is then placed in an incubator set at the desired stress temperature, optionally 33° C., but the temperature employed may be higher or lower. The optimum period of pretreatment varies with the genotype, but is preferably from between about 0.5 hours and about 72 hours, depending on the temperature. A presently preferred temperature pretreatment regime is from about 48 hours to about 72 hours at a temperature of about 33° C. The flask containing tillers can also be stored in a refrigerator at 4° C. for up to 1 month before subjecting the microspores to temperature stress treatment. It is important that after the temperature stress treatment, the tillers should not be stored in a refrigerator at 4° C. because the microspore viability goes down sharply.
(§2) Culture of isolated microspores. Isolated microspores are cultured in liquid NPB 98-1 medium or liquid NPB-99 medium, preferably liquid NPB-99 medium, as a suspension culture. An aliquot of 2 ml media per 35 mm×10 mm Petri dish, or 5 ml media per 60 mm×15 mm Petri dish, at a density of approximately 1.5×10^4 microspores per ml is effective. Immature ovaries are added to the culture at a density of one per ml of medium immediately preceding the incubation. Ovaries are aseptically picked out from fresh and disinfected spikes. Ovaries of all genotypes are effective for the present invention, but the ovaries from varieties Chris or Pavon 76 are preferred for embryogenesis of all wheat varieties tested. The Petri dish is sealed with parafilm and incubated in the dark at 27° C.
(§3) When embryoids reach the size of 1 to 2 mm, they are transferred aseptically to solid 190-2 or 190-2(b) medium, preferably 190-2(b) medium, at a density of 25-30 embryoids in each 100×15 mm Petri dish. They are incubated under continuous fluorescent light at room temperature (22° C.). In approximately two weeks, green plantlets develop and are ready for transfer to soil. Green plants are raised in the greenhouse, much like plants grown from seeds. If plants appear to be haploid, colchicine can be applied to induce chromosome doubling. Seeds produced on any plants are instantly homozygous, and so can immediately be used for rapid evaluation and selection in breeding, for analyses in genetics research, or for selection and evaluation of transformants in biotechnology.
Experiments were conducted to optimize the amount of 2,4-D utilized to enhance androgenesis and regeneration of green plants. Plant material was treated in accordance with the methods set forth in Example 1, except as described herein. Tillers of wheat cultivar Chris were treated with 2,4-D at concentrations of 0.2, 22.1, or 221 mg/l plus a fixed dose of 2-HNA at 100 mg/l. Two tillers were utilized per treatment.
Tillers in flasks with 2-HNA, plus different 2,4-D doses were placed at 33° C. for 70 hours before blending to release microspores. Microspores were cultured in 60×15 mm Petri dishes, each containing 5 ml medium NPB 98-1 plus 1 mg/l 2,4-D and incubated at 27° C. The regeneration medium was 190-2. Five fresh, live, immature Chris ovaries per Petri dish were included in each Petri dish.

Pavon 76 microspores = test: Optimization of 2,4-D concentration, embryoid yield, green plants and doubled haploids (Example 5); assay type: cell-based, wheat
Method: as §1, §2, §3
(§4) Experiments were conducted to optimize the amount of 2,4-D utilized to induce androgenesis and regeneration of green plants. Plant material was treated in accordance with the methods set forth in Example 1, except as described herein. Spikes of wheat cultivar Pavon 76 were treated with 2,4-D at concentrations of 0, 0.2, 2.2, or 22.1 mg/l plus a fixed dose of 2-HNA at 100 mg/l. Two spikes were utilized per treatment.
Spikes were incubated in sterile flasks with 2-HNA plus different doses of 2,4-D. The flasks were incubated at 33° C. for 46 hours before blending to release microspores. Microspores were cultured in 6-cm Petri dishes, each containing 5 ml medium NPB 98-1 plus 0 or 0.2 mg/l 2,4-D and incubated at 27° C. The regeneration medium was 190-2. Five fresh, live, immature Chris ovaries per Petri dish were included in each Petri dish.

[2] = tested on: microspores of wheat cultivar Chris; test: Effect of 2-HNA concentration on embryoid induction and green plant regeneration (Example 2); assay type: cell-based
Method: as §1, §2, §3
Experiments were conducted to evaluate the effect of 2-HNA on embryoid induction and green plant regeneration. Plant material was treated in accordance with the methods set forth in Example 1, except as described herein. Tillers of wheat cultivar Chris were treated with 2-HNA at concentrations of 0, 1, 10 or 100 mg/l. Three tillers were utilized for each concentration of 2-HNA.
Chris tillers were placed in sterile flasks and incubated with 2-HNA dissolved in sterile water at 33° C. for 66 hours before blending to release the microspores. As an option to ease the work schedule, newly sampled tillers may be incubated with 2-HNA at 4° C. for up to 72 hrs prior to the 33° C. treatment. Isolated microspores were cultured in 60×15 mm Petri dishes each containing 5 ml of medium NPB 98-1, including 1 mg/l phenylacetic acid (PAA) and incubated at 27° C. The regeneration medium was 190-2. Five fresh, live, Chris ovaries per Petri dish were included in each Petri dish.

[3] = tested on: microspores of wheat cultivar Pavon 76; test: Optimization of 2-HNA concentration, embryoid yield and green plants (Example 3); assay type: cell-based
Method: as §1, §2, §3
as §4, with “2-HNA” for “2,4-D”, “stimulate” for “induce”, “Tillers” for “Spikes”, “100, 500” for “0.2, 2.2,”, “1000” for “22.1 mg/l plus a fixed dose of 2-HNA at 100”, “tillers” for “spikes”
Tillers were placed in sterile flasks containing 50 ml 2-HNA solution and incubated at 33° C. for 46 hours before blending to release microspores. Microspores were again cultured in 60×15 mm Petri dishes, each containing 5 ml medium NPB 98-1 and incubated at 27° C. The regeneration medium was 190-2. Five fresh, live, immature Pavon 76 ovaries per Petri dish were included in each Petri dish.

[4] = pretreatment 2,4-D 0.2 mg/l + 2-HNA 100 mg/l, mean
[5] = pretreatment 2,4-D 0.2 mg/l + 2-HNA 100 mg/l, single repeats
[6] = pretreatment 2,4-D 22.1 mg/l + 2-HNA 100 mg/l, mean
[7] = pretreatment 2,4-D 22.1 mg/l + 2-HNA 100 mg/l, single repeats
[8] = pretreatment 2,4-D 2.2 mg/l + 2-HNA 100 mg/l, mean
[9] = pretreatment 2,4-D 2.2 mg/l + 2-HNA 100 mg/l, single repeats
[10] = 2-HNA 100 mg/l, % of embryoids transferred to regeneration medium, single repeats
[11] = pretreatment 2-HNA 100 mg/l, 2,4-D 0 mg/l, mean

O=C(O)COc1ccc(Cl)cc1Cl [2,4-D, 2,4-dichlorophenoxyacetic acid]
2,4-D concentration during the pretreatment at which number of induced embryoids and percentage of regenerated green plants were highest ([1]; plus 2-HNA 100 mg/l): 1 mg/L | Number of embryoids ([1]; pretreatment 2,4-D 0.2 mg/l + 2-HNA 100 mg/l, 33° C. 70 hours, induction medium 2,4-D 1 mg/l, single repeats): 2088 and 2107 | Number of embryoids [1, 4]: 2098 | green plant (%) [1, 4]: 92% | green plant (%) [1, 5]: 83% and 100% | Number of embryoids ([1]; pretreatment 2,4-D 22.1 mg/l + 2-HNA 100 mg/l, 33° C. 70 hours, induction medium 2,4-D 1 mg/l, single repeats): 1908 and 1156 | Number of embryoids [1, 6]: 1532 | green plant (%) [1, 6]: 71% | green plant (%) [1, 7]: 63% and 79% | Number of embryoids ([1]; pretreatment 2,4-D 221 mg/l + 2-HNA 100 mg/l, 33° C. 70 hours, induction medium 2,4-D 1 mg/l, single repeats): 0 | Number of embryoids ([1]; pretreatment 2,4-D 221 mg/l + 2-HNA 100 mg/l, mean): 0 | 2,4-D concentration during the pretreatment at which number of induced embryoids and percentage of regenerated green plants were highest (Pavon 76 microspores; plus 2-HNA 100 mg/l): 2.2 mg/L | Number of embryoids (Pavon 76 microspores; pretreatment 2,4-D 0.2 mg/l + 2-HNA 100 mg/l, induction medium 2,4-D 0.2 mg/l, single repeats): 1200 and 1121 | Number of embryoids (Pavon 76 microspores; [4]): 1161 | green plant (%) (Pavon 76 microspores; [4]): 9% | green plant (%) (Pavon 76 microspores; [5]): 9% | Number of embryoids (Pavon 76 microspores; pretreatment 2,4-D 2.2 mg/l + 2-HNA 100 mg/l, induction medium 2,4-D 0.2 mg/l, single repeats): 1675 and 1634 | Number of embryoids (Pavon 76 microspores; [8]): 1655 | green plant (%) (Pavon 76 microspores; [8]): 30% | Doubled-Haploid % (Pavon 76 microspores; [9]): 50% and 38% | green plant (%) (Pavon 76 microspores; [9]): 31% and 28% | Number of embryoids (Pavon 76 microspores; pretreatment 2,4-D 22.1 mg/l + 2-HNA 100 mg/l, induction medium 2,4-D 0.2 mg/l, single repeats): 1119 and 1012 | Number of embryoids (Pavon 76 microspores; [6]): 1066 | green plant (%) (Pavon 76 microspores; [6]): 18% | Doubled-Haploid % (Pavon 76 microspores; [7]): 17%

O=C(O)c1cccnc1O [2-HNA, 2-hydroxynicotinic acid]
number of induced embryoids, dependence on concentration ([2]; 2-HNA 0, 1, 10 or 100 mg/l): increases with increasing concentrations of 2-HNA | percentage of regenerated green plants, dependence on concentration ([2]; 2-HNA 0, 1, 10 or 100 mg/l): does not significantly differ | green plant (%) ([2]; 2-HNA 1 mg/l, % of embryoids transferred to regeneration medium, single repeats): 100% | Number of embryoids ([2]; 2-HNA 1 mg/l, mean): 118 | green plant (%) ([2]; 2-HNA 1 mg/l, mean): 100% | green plant (%) ([2]; 2-HNA 10 mg/l, % of embryoids transferred to regeneration medium, single repeats): 94% and 100% | Number of embryoids ([2]; 2-HNA 10 mg/l, mean): 322 | green plant (%) ([2]; 2-HNA 10 mg/l, mean): 97% | Number of embryoids ([2]; 2-HNA 100 mg/l, 33° C. 66 hours, single repeats (rep 1, rep 2)): 1258 and 1217 | green plant (%) [2, 10]: 100% | Number of embryoids ([2]; 2-HNA 100 mg/l, mean): 1238 | green plant (%) ([2]; 2-HNA 100 mg/l, mean): 100% | green plant (%) [3, 10]: 60% and 67% | # embryoids ([3]; 2-HNA 100 mg/l, mean): 1356 | green plant (%) ([3]; 2-HNA 100 mg/l, mean): 63% | green plant (%) ([3]; 2-HNA 500 mg/l, % of embryoids transferred to regeneration medium, single repeats): 33% | # embryoids ([3]; 2-HNA 500 mg/l, mean): 66 | green plant (%) ([3]; 2-HNA 500 mg/l, mean): 33% | green plant (%) ([3]; 2-HNA 1000 mg/l, % of embryoids transferred to regeneration medium, single repeats): 40% and 22% | # embryoids ([3]; 2-HNA 1000 mg/l, mean): 768 | green plant (%) ([3]; 2-HNA 1000 mg/l, mean): 31% | 2-HNA concentration at which number of induced embryoids and percentage of regenerated green plants were highest ([3]; tested 0, 100, 500 or 1000 mg/l): 100 mg/L | Number of embryoids (Pavon 76 microspores; pretreatment 2-HNA 100 mg/l, 2,4-D 0 mg/l, induction medium 2,4-D 0, 33° C. 46 hours, single repeats): 603 and 607 | Number of embryoids (Pavon 76 microspores; [11]): 605 | green plant (%) (Pavon 76 microspores; [11]): 19% | green plant (%) (Pavon 76 microspores; pretreatment 2-HNA 100 mg/l, 2,4-D 0 mg/l, single repeats): 13% and 25%
